ChEMBL document CHEMBL1255450, “Detection of E119V and E119I mutations in influenza A (H3N2) viruses isolated from an immunocompromised patient: challenges in diagnosis of oseltamivir resistance” (Antimicrob Agents Chemother, 2010)

Assays:
Influenza A virus [1] = assay: Antiviral activity against Influenza A virus (A/Washington/01/2007 (H3N2)) measured in MDCK cells by NA inhibition assay; assay type: functional, organism-based
Influenza A virus [2] = assay: Antiviral activity against Influenza A virus (A/Washington/01/2007 (H3N2)) measured in MDCK cells by fluorescent NA inhibition assay; assay type: functional, organism-based

SMILES | IC50 (Influenza A virus [1]) [nM] | IC50 (Influenza A virus [2]) [nM]
C/C=C\[C@@H]1C[C@H](C(=O)O)N[C@H]1[C@@H](NC(C)=O)[C@](C)(CCC)OC | 0.74 | 1.22
CCOC(=O)C1=C[C@@H](OC(CC)CC)[C@H](NC(C)=O)[C@@H](N)C1 [OSELTAMIVIR] | 0.16 | 0.44
CCC(CC)[C@H](NC(C)=O)[C@@H]1[C@H](O)[C@@H](C(=O)O)C[C@H]1NC(=N)N [PERAMIVIR ANHYDROUS] | 0.28 | 0.5
